Where two headings read alike, the source gives them in different places.
Experiments:
human IL-17A protein = target: T1, human IL-17A protein (Homo sapiens, UniProt Q16552); assay: Inhibition of chemokine GROα/CXCL1 generation induced by human IL-17A protein in HT-29 cell; assay type: cell-based
T1 construct: purchased R&D 317-ILB
T1 sequence (Q16552 20-155 limits assumed): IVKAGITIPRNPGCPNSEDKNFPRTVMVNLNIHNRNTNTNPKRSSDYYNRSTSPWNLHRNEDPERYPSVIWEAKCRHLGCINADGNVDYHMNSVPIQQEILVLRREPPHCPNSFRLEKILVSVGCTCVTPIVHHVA
Method: HT-29 (Zhongyuan Gongchuang Technology Co., Ltd. of Chengdu, Sichuan) was added to a 96-well plate at 5×10^4 cells/well, and cultured overnight in a incubator at 37° C. A mixture of 30 ng/mL of human IL-17A protein (R&D, #317-ILB) and IL-17A small molecule inhibitors with gradient concentrations or 0.3 μg/mL of positive control IL-17A antibody (R&D, #AF-317-NA) was incubated at 37° C. for 1 h, and then added to the above-mentioned 96-well plate, and incubated with HT-29 cells at 37° C. for 48 hours. Then the GROα level in the cell culture supernatant was detected by an ELISA kit (Cisbio, #62HCXC1PEG) of the GROα.
According to the methods described in Experimental Examples 1 and 2, the compounds prepared in the above-mentioned examples were subjected to the experiment on inhibition of chemokine GROα/CXCL1 generation induced by human IL-17A protein in HT-29 cell.

[1] = Pharmacokinetic properties in rats (intravenous injection/oral gavage); assay type: in vivo; conditions: oral bioavailability
Method: (§1) In order to investigate the pharmacokinetic properties of the compound in rats, 3 rats were administered with the compounds at corresponding doses by intravenous injection/oral gavage, respectively. The anticoagulated whole blood of the rats were collected and the plasma was separated at 5 min, 15 min, 30 min, 1 h, 2 h, 4 h, 8 h, 24 h after administrated. In order to investigate the pharmacokinetic properties of the compound in mice, 6 mice were administered with the compound at the corresponding dose by intravenous injection/oral gavage. The mice administered by each route were divided into A group and B group. The anticoagulated whole blood was collected from the mice in group A at 5 min, 30 min, 2 h, and 8 h after the administration, and the anticoagulated whole blood was collected from the mice in group B at 15 min, 1 h, 4 h, and 24 h after the administration, and plasma was separated. In order to investigate the pharmacokinetic properties of dogs, two groups of 4 beagle dogs (2 males+2 females) were administered with the compound at corresponding doses by intravenous injection/oral gavage. The anticoagulated whole blood of each dog was collected, and the plasma was separated at 2 h, 4 h, 8 h, 12 h, 24 h, 36 h after the administration.
(§2) Plasma concentrations of compounds were determined by standard curve calibration by LC-MS. […]

human IL-17A = target: T2, human IL-17A (Homo sapiens, UniProt Q16552); assay: IL-17A enzyme-linked immunosorbent assay (competitive ELISA, IL-17A/IL-17R binding)
T2 construct: purchased Sino Biological Inc. 12047-H07B
T2 sequence (Q16552 24-155): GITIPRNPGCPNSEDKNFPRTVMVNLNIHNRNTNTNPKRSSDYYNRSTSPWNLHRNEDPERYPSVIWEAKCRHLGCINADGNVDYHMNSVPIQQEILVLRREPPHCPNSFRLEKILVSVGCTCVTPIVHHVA
Method: The inhibition of receptor-ligand binding by human IL-17A inhibitors was quantified by competitive ELISA. 0.2 μg/mL of IL-17A (Sino Biological Inc. Cat #12047-H07B) was added in a 96-well plate at 100 μl per well for incubation for 30 min under 37° C. The 96-well plate was washed with PBST (PBS, 0.05% Tween-20) at 200 μl per well for 4 times, and then added with 200 μl of 5% skim milk and placed on a shaker for incubation at 25° C. for 30 min. The compound to be tested was prepared at 100× concentration ranging from 0.003 μM to 30 μM. After washed with PBST (PBS, 0.05% Tween-20) 4 times, the plate was added with 89 μl of PBST and 1 μl of the compound to be tested at 100× concentration followed by uniformly mixing and pre-incubation at 25° C. for 10 min. Then the plate was added with 10 μl of 16 nM IL-17R, and incubated on a shaker at 25° C. for 30 min. After washed for 4 times, the plate was added with 100 μl of anti-Fc-tag horseradish peroxidase (HRP)-conjugated antibody, and incubated on a shaker at 25° C. for 30 min. After washed 4 times, the plate was added with 100 μl of 3,3′, 5,5″-tetramethylbenzidine (TMB) substrate solution, and incubated at 25° C. in the dark. Then the plate was added with 20% HCl, followed by detection of the light absorption value at a wavelength of 450 nm by a microplate reader. The compounds prepared in the above examples were tested for human IL-17A inhibitory activity according to the above method.

[2] = Pharmacokinetic properties in mice (intravenous injection/oral gavage); assay type: in vivo; conditions: oral bioavailability
Method: as §1, §2

[3] = tested on: imiquimod-induced psoriasis mouse model; assay: Pharmacodynamic test on an imiquimod cream-induced psoriasis model in mice; assay type: in vivo, C57BL/6N mouse
Method: Each 10-week-old female C57 black 6 (C57BL/6N) mouse was shaved to approximately 2.5×4 cm on the back, which the imiquimod (IMQ, Imiquimod) cream continuously applies from the day 1-4, so as to establish a psoriasis model. Each mouse was administrated with the compound 51 prepared in this application by gavage (3, 10, 30 mg/kg) once a day, and administrated with IL-17A antibody solution by intraperitoneal injection (Ab, 2 mg/kg) every other day, or administrated with dexamethasone solution by intraperitoneal injection (10 mg/kg) once a day. […] On day 1 and day 5 of the experiment, the skin thickness of the mice was measured to investigate the skin thickening induced by IMQ.
On day 5 of the experiment, the skins of mice in each group were collected, the mRNA expression level of IL6 was detected by quantitative reverse transcription polymerase chain reaction (RT-qPCR) test. […] On day 5 of the experiment, the plasma of mice in each group was collected, and the IL6 protein level was measured.
On day 5 of the model, the skin samples were collected from the back of each mouse. The samples were fixed in 4% paraformaldehyde, and stained with hematoxylin-eosin (HE) to investigate the protective effect of compound 51 on skin pathological damage.

[4] = Pharmacokinetic properties in dogs (intravenous injection/oral gavage); assay type: in vivo; conditions: oral bioavailability, beagle dogs
Method: as §1, §2

[5] = tested on: cytochrome P450 1A2 (CYP1A2); assay type: in vitro ADME; conditions: human hepatocytes
Method: In order to evaluate the induction of CYP enzymes in human hepatocytes by the compounds prepared in the above examples at 10 μM, Omeprazole (positive control) and the compound prepared in Example 32 (control compound 2) disclosed in patent application. WO2020/127685A1 were used as controls.

SMILES | IC50 (human IL-17A protein) [nM] | F % (Rats) [1] [%] | IC50 (human IL-17A) [nM] | F % (Mice) [2] [%] | skin thickening induced by IMQ (skin thickness day 1 and day 5) ([3]; compound 51 gavage 3, 10, 30 mg/kg once a day, antibody i.p. 2 mg/kg every other day, FIG. 1B) | skin pathological damage (HE staining) ([3]; day 5, 3, 10 and 30 mg/kg, FIGS. 2A-G) | mRNA expression level of IL6 in skin (RT-qPCR) ([3]; day 5, gavage 3, 10, 30 mg/kg, FIG. 1C) | IL6 protein level in plasma ([3]; day 5, gavage 3, 10, 30 mg/kg, FIG. 1D) | AUC of the psoriasis area and severity index (PASI) scoring curve (skin inflammation) ([3]; gavage 3, 10, 30 mg/kg once a day, FIG. 1A) | F %(Dogs) [4] [%] | Note 1A2 (CYP1A2 induction) ([5]; 10 μM) | mRNA Expression level % of the positive control 1A2 ([5]; 10 μM) [%] | mRNA Expression level Fold of induction 1A2 ([5]; 10 μM) | Note 1A2 (CYP1A2 induction) ([5]; 10 μM, listed as compound 51) | mRNA Expression level Fold of induction 1A2 ([5]; concentration 25/750 μM (positive control))
Cc1n[nH]c(C)c1-c1ncc(NC(=O)[C@@H](NC(=O)c2ccnn2C(C)C)C(C2CC2)C2CC2)cc1F [Compound 51] | 224 | 46 | 42 | 56 | reversed the skin thickening caused by IMQ at different levels | may inhibit the infiltration and damage of skin inflammatory cells induced by IMQ at different levels | dependently reversed the up-regulation of IL6 expression level | dependently inhibited the increase of IL6 protein level in the plasma | reduced the level of skin inflammation induced by IMQ | 58 | Non- | 2.20 | 1.26 | no inducing effect | 
COc1ccc2[nH]c([S+]([O-])Cc3ncc(C)c(OC)c3C)nc2c1 (stereo not drawn) [Omeprazole, reference compound] |  |  |  |  |  |  |  |  |  |  |  |  |  |  | 12.8
